# What was measured:
# [1] = tested on: DSS-colitis; assay: DSS-colitis (acute colitis) mouse model: weight loss, DAI, symptoms, crypt score; type: in vivo, C57BL/6 mice
# From the text: Animals. Pathogen-free male C57BL/6 mice, 4-6 weeks of age (Taconic; C57BL/6×129 svj strain) were used in this example. Mice were kept for one week at 4 mice/cage and fed normal laboratory chow and drinking water ad libitum prior to the experiments. All mice weighed between 22.5 g and 27.7 g at the beginning of the trial. The animal experimentation protocol was reviewed and approved by the Animal Care and Use Committees of the Beth Israel Deaconess Medical Center.
# Induction of Colitis. Colitis was induced by feeding mice 5% (wt/v) dextran sodium sulfate (DSS) (MW 40,000; ICN Biomedicals Inc., OH), dissolved in distilled water, for a period of 7 days. The resulting condition was termed “DSS-colitis.” Control animals were fed distilled water ad libitum. The mortality rate in the control group and the CO-treated group was 10% (2/20) and 14% (2/14), respectively. These animals were excluded from the statistical analysis. In the other groups, no mortality occurred during 7 days of 5% DSS treatment.
# Experimental Reagents and Treatment Protocol. Cobalt protoporphyrin (CoPPIX), zinc protoporphyrin (ZnPPIX, Porphyrin Products, Logan, Utah) and biliverdin dihydrochloride (ICN Biomedicals Inc., OH) were dissolved in a small amount 0.2 M NaOH, subsequently adjusted to a pH of 7.4 with 1 M HCl, and diluted in 0.9% NaCl. The stock solutions (CoPPIX and ZnPPIX=1 mg/ml, biliverdin=10 mM) were aliquoted and kept at −70° C. until used. Light exposure was limited as much as possible. CoPPIX (5 mg/kg), ZnPPIX (20 mg/kg) and biliverdin (50 μmol/kg) were administered to the mice intraperitoneally (i.p.) 24 hours before induction of DSS-colitis and daily thereafter. Desferoxamine (DFO) was prepared in imidazole buffer (50 mM imidazole, 220 mM NaCl, pH 7.4). DFO was injected subcutaneously (s.c.) twice daily (125 mg/kg) or infused i.p. (130 mg/kg/day; pumping rate 0.5 μl/hour for 8 days) by miniosmotic Alzet™ pumps (Alza Corporation, Palo Alto, Calif.) (Postma et al., Exp. Parasitol. 89(3):323-30 1998). The pumps were installed i.p. 24 hours before induction of colitis. When animals were sacrificed at day 7 of DSS treatment, the pumps were removed and evaluated to determine if DFO application had taken place.
# CO gas was administrated exogenously by putting animals in a CO exposure chamber (Otterbein et al., Nat. Med. 6(4):422-8, 2000). Briefly, CO at a concentration of 1% (10,000 parts per million (ppm)) in compressed air was mixed with balanced air (21% oxygen) in a stainless steel mixing cylinder before entering the exposure chamber. CO concentrations were controlled by varying the flow rates of CO in a mixing cylinder before delivery to the chamber. Because the flow rate is primarily determined by the O2 flow, only the CO flow was changed to deliver the final concentration to the exposure chamber. A CO analyzer (Interscan Corporation, Chatsworth, Calif.) was used to measure CO levels continuously in the chamber. Mice were placed in the chamber 24 hours before the induction of the colitis and were kept in the exposure chamber during the whole period of the experiment (total of 8 days). […] Animals were removed daily from the chamber to assess weight and stool.
# Evaluation of Symptoms of Colitis. All animals were evaluated clinically on a daily basis. The evaluation of each animal included a measurement of weight, hemoccult positivity and examination of stool for the presence of gross blood and stool consistency. The disease activity index (DAI) was calculated by scoring percent weight loss, intestinal bleeding (no blood; occult blood=hemoccult+; gross blood) and stool consistency (normal stool=well-formed pellets; loose stool=pasty and semiformed stools; diarrhea=liquid stool that stuck to the anus) (Table 1).
# The animals were sacrificed, and the whole colon from the colo-cecal junction to the anal verge was removed and gently cleaned of stool. […]
# [2] = tested on: IL-6; assay: Real time RT-PCR of graft muscularis after SITx, IL-6; type: in vivo, LEW rats; settings: figure legend 23A-23D, graft muscularis 4 hours after transplantation
# Protocol: Small Intestinal Transplantation. Orthotopic small intestinal transplantation (SITx) was performed in syngeneic Lewis rats. SITx with caval drainage was performed using a previously described procedure (Murase et al., in Handbook of Animal Models in Transplantation Research, Cramer et al., Eds. CRC Press, Boca Raton, Fla., pp. 203-213 (1994)). […] The graft was perfused via the aortic segment with 5 ml chilled Ringer's lactate solution, and the intestinal lumen was irrigated with 20 ml of cold saline solution containing 0.5% neomycin-sulfate (Sigma, St. Louis, Mo.). End-to-side anastomoses between the graft aorta and the recipient infrarenal aorta, and between the graft portal vein and recipient vena cava, were performed with 10-0 Novafil™ suture. The cold ischemic time was 1 hour. The entire recipient intestine was removed and the enteric continuity was restored by proximal and distal end-to-end intestinal anastomoses. Recipient animals were given 20 mg/day prophylactic cefamandole nafate for 3 postoperative days. Transplanted recipients were given water 3 hours after surgery, and were fed 24 hours after surgery.
# (§1) SYBR green real time RT-PCR. The effects of administration of biliverdin on transplant-induced pro-inflammatory and anti-inflammatory gene expression were assessed in muscularis extracts by RT-PCR Biliverdin ([…], i.p.) was administered to both the donor and recipient three hours preoperatively. The muscularis externae was collected from normal intestine and transplanted grafts 4 hours postoperatively and snap frozen in liquid nitrogen. […] Equal aliquots (5 μg) of total RNA from each sample were quantified by spectrophotometry (wavelength […]) and aliquoted at a concentration of 40 ng/μl. Peak mRNA expression was quantified in duplicate by SYBR Green two-step, real-time RT-PCR. […] Real-time PCR data were plotted as the ΔRn fluorescence signal versus the cycle number. […] Quantification of mRNA expression was normalized to GAPDH and calculated relative to control using the comparative CT method (Schmittgen et al., J. Biochem. Biophys. Methods 46(1-2):69-8, 2000). […]
# [3] = tested on: IL-1β; assay: Real time RT-PCR of graft muscularis after SITx, IL-1β; type: in vivo, LEW rats; settings: figure legend 23A-23D, graft muscularis 4 hours after transplantation
# Protocol: Small Intestinal Transplantation. Orthotopic small intestinal transplantation (SITx) was performed in syngeneic Lewis rats. SITx with caval drainage was performed using a previously described procedure (Murase et al., in Handbook of Animal Models in Transplantation Research, Cramer et al., Eds. CRC Press, Boca Raton, Fla., pp. 203-213 (1994)). […] The graft was perfused via the aortic segment with 5 ml chilled Ringer's lactate solution, and the intestinal lumen was irrigated with 20 ml of cold saline solution containing 0.5% neomycin-sulfate (Sigma, St. Louis, Mo.). […]
# as §1, with “preoperatively.” for “preoperatively. The muscularis externae was collected from normal intestine and transplanted grafts 4 hours postoperatively and snap frozen in liquid nitrogen.”
compound,measurement,setting,value
"[C-]#[O+] [CO, carbon monoxide]",mortality rate,"[1]; 7 days of 5% DSS, CO exposure chamber 250-400 ppm",14%
same,"effect on DSS-colitis (weight loss, DAI)","[1]; continuous exposure to 200-400 ppm CO, compared to the control",did not have an effect
same,mean expression of IL-6 mRNA,[2],significantly reduced
same,mean expression of IL-1b mRNA,[3],significantly reduced

# Source: patent publication US8097585B2, “Methods of treating inflammation by administration of heme oxygenase-1 and products of heme degradation” (priority 2002, dated 2012)
